Experimental data published in patent publication US11584928B2, “Methods for generating barcoded combinatorial libraries” (The Regents of the University of Colorado, priority 2016, dated 2023).

Each substance was assayed on galK (assay: galK editing with MAD2 or MAD7 nuclease and various guide nucleic acid scaffolds, white/red screening). Conditions: guide sequence targeting galK.
Assay type: cell-based, E. coli
From the text: MAD2 and MAD7 nucleases are nucleic acid-guided nuclease that can be used in the methods disclosed herein. Nucleases Mad2 (SEQ ID NO: 2) and Mad 7 (SEQ ID NO: 7) were cloned and transformed into cells. Editing cassettes designed to mutate a target site in a galK gene were designed with mutations, which allowed for white/red screening of successfully editing colonies. The editing cassettes also encoded a guide nucleic acid designed to target galK. The editing cassettes were transformed into E. coli cells expressing MAD2, MAD7, or Cas9. […] In this example, the guide nucleic acid used with MAD2 and MAD7 comprised a scaffold-12 sequence and a guide sequence targeting galK. The guide nucleic acid used with Cas9 comprised a sequence compatible with the S. pyogenes Cas9.
(§1) FIG. 32 and Table 3 show more examples of gene editing using the MAD2 nuclease. In this experiment, different guide nucleic acid sequences were tested. The guide sequence of the guide nucleic acids targeted the galK gene as described above. The scaffold sequence of the guide nucleic acids were one of various sequences tested as indicated.
as §1, with “33” for “32”, “4” for “3”, “MAD7” for “MAD2”, “indicated. […] Table 3 and Table 4 also provided the designed mutations in the editing cassettes that were used to mutate the galK target gene.” for “indicated.”

| Substance | formation of functional complexes with MAD2 | formation of functional complexes with MAD7 |
| --- | --- | --- |
| scaffold-11: guide nucleic acid scaffold sequence, SEQ ID NO: 94 (guide GTCTGGCCCCAAATTTTAATTTCTACTGTTGTAGAT; chemistry not given here) | able to form functional complexes | able to form functional complexes |
| scaffold-10: guide nucleic acid scaffold sequence, SEQ ID NO: 93 (guide CTCTACAACTGATAAAGAATTTCTACTTTTGTAGAT; chemistry not given here) | able to form functional complexes | able to form functional complexes |
| scaffold-5: guide nucleic acid scaffold sequence, SEQ ID NO: 88 (guide CCGTCTAAAACTCATTCAGAATTTCTACTAGTGTAGAT; chemistry not given here) | able to form functional complexes | – |
| scaffold-12: guide nucleic acid scaffold sequence, SEQ ID NO: 95 (guide GTCAAAAGACCTTTTTAATTTCTACTCTTGTAGAT; chemistry not given here) | able to form functional complexes | able to form functional complexes |
